Source: ChEMBL document CHEMBL1909046, “DrugMatrix in vitro pharmacology data”

Key:
[1] = molecular target: T1, Alpha-1A adrenergic receptor (Rattus norvegicus, UniProt P43140); test: DRUGMATRIX: Alpha-1A adrenergic receptor radioligand binding (ligand: prazosin); format: cell membranes, Wistar, Submaxillary gland, Membrane; conditions: Not Active = under 50% inhibition at 10 µM; for Ki: read-out: Ki
T1 sequence (P43140 whole entry): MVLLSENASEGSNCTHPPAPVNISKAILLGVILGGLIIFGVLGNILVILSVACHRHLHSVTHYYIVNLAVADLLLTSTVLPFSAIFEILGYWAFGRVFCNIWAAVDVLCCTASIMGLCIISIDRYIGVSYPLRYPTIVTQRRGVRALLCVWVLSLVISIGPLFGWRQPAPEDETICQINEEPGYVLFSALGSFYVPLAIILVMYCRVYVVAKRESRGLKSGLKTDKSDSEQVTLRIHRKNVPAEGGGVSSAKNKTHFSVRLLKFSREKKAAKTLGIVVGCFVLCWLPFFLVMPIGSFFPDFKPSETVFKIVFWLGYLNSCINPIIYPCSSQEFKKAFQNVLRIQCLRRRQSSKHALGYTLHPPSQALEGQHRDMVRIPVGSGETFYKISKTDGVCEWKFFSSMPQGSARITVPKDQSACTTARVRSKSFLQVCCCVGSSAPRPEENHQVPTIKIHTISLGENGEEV

[2] = molecular target: T2, Alpha-2C adrenergic receptor (Homo sapiens, UniProt P18825); test: DRUGMATRIX: Adrenergic Alpha-2C radioligand binding (ligand: [3H] MK-912); format: cell membranes, Sf9, Membrane
T2 sequence (P18825 whole entry): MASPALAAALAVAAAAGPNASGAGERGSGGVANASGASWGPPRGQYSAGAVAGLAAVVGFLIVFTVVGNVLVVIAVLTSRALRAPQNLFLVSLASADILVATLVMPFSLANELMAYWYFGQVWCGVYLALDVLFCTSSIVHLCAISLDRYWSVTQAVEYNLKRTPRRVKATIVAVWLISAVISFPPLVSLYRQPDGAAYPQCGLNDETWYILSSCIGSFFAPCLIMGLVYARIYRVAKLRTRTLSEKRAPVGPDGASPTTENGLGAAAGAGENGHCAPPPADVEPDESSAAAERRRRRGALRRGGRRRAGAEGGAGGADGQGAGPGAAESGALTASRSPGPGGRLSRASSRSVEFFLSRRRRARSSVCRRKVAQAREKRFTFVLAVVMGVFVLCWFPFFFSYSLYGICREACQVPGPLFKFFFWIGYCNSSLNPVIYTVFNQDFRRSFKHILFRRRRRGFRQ

[3] = molecular target: Beta-2 adrenergic receptor (Homo sapiens, UniProt P07550); test: DRUGMATRIX: Adrenergic beta2 radioligand binding (ligand: [3H] CGP-12177); format: cell membranes, CHO, Membrane; conditions: cho; Not Active = under 50% inhibition at 10 µM
[4] = DRUGMATRIX: Serotonin (5-Hydroxytryptamine) 5-HT3 radioligand binding (ligand: [3H] GR-65630); format: cell membranes, Membrane; conditions: hek293, Not Active = under 50% inhibition at 10 µM
[5] = DRUGMATRIX: GABAA, Muscimol, Central radioligand binding (ligand: [3H] Muscimol); format: cell membranes, Rattus norvegicus, Wistar, Brain, Membrane; conditions: Not Active = under 50% inhibition at 10 µM
[6] = DRUGMATRIX: Glutamate, NMDA, Agonism radioligand binding (ligand: [3H] CGP-39653); format: cell membranes, Rattus norvegicus, Wistar, Cerebral cortex, Membrane; conditions: Not Active = under 50% inhibition at 10 µM

Sequence of Beta-2 adrenergic receptor (P07550 whole entry): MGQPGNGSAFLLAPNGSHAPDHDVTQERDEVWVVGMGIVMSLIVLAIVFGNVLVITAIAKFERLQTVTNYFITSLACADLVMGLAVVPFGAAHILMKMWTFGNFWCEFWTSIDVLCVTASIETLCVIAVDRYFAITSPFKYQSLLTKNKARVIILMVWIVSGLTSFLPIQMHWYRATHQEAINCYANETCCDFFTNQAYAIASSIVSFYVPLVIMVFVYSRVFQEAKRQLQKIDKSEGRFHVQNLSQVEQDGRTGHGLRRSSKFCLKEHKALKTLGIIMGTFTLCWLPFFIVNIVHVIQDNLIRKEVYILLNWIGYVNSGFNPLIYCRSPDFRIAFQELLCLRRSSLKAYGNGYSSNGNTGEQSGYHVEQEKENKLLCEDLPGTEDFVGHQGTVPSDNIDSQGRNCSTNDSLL

Structure (SMILES)	IC50 [1]	IC50 ([2]; sf9)	IC50 [3]	IC50 [4]	Ki [4]	IC50 [5]	Ki [5]	IC50 [6]	Ki [6]	IC50 ([4]; read-out: IC50) [nM]	Ki ([4]; read-out: Ki) [nM]	IC50 ([1]; read-out: IC50) [nM]	Ki [1] [nM]	IC50 ([2]; read-out: IC50) [nM]	Ki ([2]; read-out: Ki) [nM]
Cc1ccc(S(=O)(=O)NC(=O)NN2CCCCCC2)cc1 [TOLAZAMIDE]	Not Active	Not Active	Not Active	Not Active	Not Active	Not Active	Not Active	Not Active	Not Active	–	–	–	–	–	–
Cc1cccc(C)c1NC(=O)C(C)N (stereo not drawn) [TOCAINIDE]	Not Active	Not Active	Not Active	Not Active	Not Active	Not Active	Not Active	Not Active	Not Active	–	–	–	–	–	–
Cc1cc2c(s1)Nc1ccccc1N=C2N1CCN(C)CC1 [OLANZAPINE]	–	–	Not Active	–	–	–	–	–	–	–	–	–	–	–	–
COC(=O)Nc1nc2ccc(C(=O)c3ccccc3)cc2[nH]1 [MEBENDAZOLE]	Not Active	Not Active	Not Active	Not Active	Not Active	Not Active	Not Active	Not Active	Not Active	–	–	–	–	–	–
O=C1CC[C@@]2(O)[C@H]3Cc4ccc(O)c5c4[C@@]2(CCN3CC2CC2)[C@H]1O5 [NALTREXONE]	Not Active	Not Active	Not Active	Not Active	Not Active	Not Active	Not Active	Not Active	Not Active	–	–	–	–	–	–
CCN(CC)CCNC(=O)c1cc(Cl)c(N)cc1OC [METOCLOPRAMIDE]	Not Active	Not Active	Not Active	–	–	Not Active	Not Active	Not Active	Not Active	4010	902	–	–	–	–
CCOc1cc(N)c(Cl)cc1C(=O)NCC1CN(Cc2ccc(F)cc2)CCO1 (stereo not drawn) [MOSAPRIDE]	Not Active	Not Active	Not Active	Not Active	Not Active	Not Active	Not Active	Not Active	Not Active	–	–	–	–	–	–
Cc1ccc(Cl)c(Nc2ccccc2C(=O)O)c1Cl [MECLOFENAMIC ACID]	Not Active	Not Active	Not Active	Not Active	Not Active	Not Active	Not Active	Not Active	Not Active	–	–	–	–	–	–
CN1C[C@H](CNC(=O)OCc2ccccc2)C[C@@H]2c3cccc4c3c(cn4C)C[C@H]21 [METERGOLINE]	–	–	Not Active	Not Active	Not Active	Not Active	Not Active	Not Active	Not Active	–	–	95	38	189	27
O=[As][O-].[Na+] [SODIUM ARSENITE]	Not Active	Not Active	Not Active	Not Active	Not Active	Not Active	Not Active	Not Active	Not Active	–	–	–	–	–	–
CC(=O)O[C@]1(C(C)=O)CC[C@H]2[C@@H]3C[C@H](C)C4=CC(=O)CC[C@]4(C)[C@H]3CC[C@@]21C [MEDROXYPROGESTERONE ACETATE]	Not Active	Not Active	Not Active	Not Active	Not Active	Not Active	Not Active	Not Active	Not Active	–	–	–	–	–	–
CN(C)CCC=C1c2ccccc2COc2ccccc21 [DOXEPIN]	–	–	–	–	–	–	–	–	–	–	–	107	43	–	–
CNCCCC12CCC(c3ccccc31)c1ccccc12 [MAPROTILINE]	–	–	Not Active	–	–	–	–	–	–	–	–	567	230	–	–
